According to article PMC8528301 (PLoS ONE, 2021):
Where “and” joins values, the source holds several entries; their conditions need not be identical. Equal entries are not always repeated.

Experiment: Dasatinib single oral gavage plasma pharmacokinetics (NLME modeling)
Assay type: in vivo, mouse
Design: DV (dasatinib plasma concentration): unit: ng/mL
Description: Dasatinib was dissolved in 80 mMol/L sodium citrate buffer pH 3.1 for a total dasatinib concentration of 1 mg/mL and a 10 mL/kg gavage volume. Mice were grouped by VD3 status and sex and studied at 8 and 10 weeks of age. […] Saphenous and submandibular bleeds of mice using a single-use Sarstedt Minivette POCT 50 μL K3 EDTA capillary device are humane methods for obtaining small volumes of blood over multiple time points, preferrable to retroorbital bleeds, and were approved for this study that required blood sampling at multiple time points (three) after dasatinib administration. Each mouse was sampled three times on two separate dasatinib dosing occasions. Blood was collected into the Minivette capillary device, dispensed into a microtube and vortexed to mix the anticoagulant. The tubes were then immediately centrifuged to plasma and stored on dry ice for the remainder of the study. At the end of the in vivo procedures, plasma samples were transferred from dry ice and placed at -80°C until analysis.
Total plasma dasatinib concentrations were assessed using a sensitive and specific liquid chromatography, tandem mass spectrometry (LC-MS/MS) assay. Dasatinib stock solutions were prepared in acetonitrile and used to spike matrix calibrators and quality controls. Protein precipitation was performed using a 1:4 ratio of plasma to 15 ng/mL erlotinib HCl (St. Jude Compound Management, S00004053, Inventory ID: SJCH0042996, Purity > 95%) in methanol as an internal standard. A 3μL aliquot of the extracted supernatant was injected onto a Shimadzu LC-20ADXR high performance liquid chromatography system via a LEAP CTC PAL autosampler. The LC separation was performed using a Phenomenex Kinetex 2.6 um EVO C18 (100A, 50 x 2.1 mm) maintained at 50°C with gradient elution at a flow rate of 0.5 mL/min. The binary mobile phase gradient began with a linear increase to 100% B in 4.0 minutes. The column was then rinsed for 2.0 minutes at 100% B and then equilibrated at the initial conditions for two minutes for a total run time of eight minutes.
Analyte and IS were detected with tandem mass spectrometry using a SCIEX API 5500 Q-TRAP in the positive ESI mode with monitoring of the following mass transitions: Dasatinib 488.20 -> 401.00, erlotinib HCl 394.20 -> 250.10.
The experimental bioanalytical runs were all found to be acceptable for the purpose of a singlicate non-GLP, preclinical PK assessment. A linear model (1/X^2 weighting) fit the calibrators across the 1.00 to 500 ng/mL range, with a correlation coefficient (R) of […]. The lower limit of quantification (LLOQ), defined as a peak area signal-to-noise ratio of 5 or greater verses a matric blank with IS, was 1.00 ng/mL.
§ To evaluate the plasma pharmacokinetics (PK) of dasatinib af t er two separate single oral gavage doses of solution, separated by a washout period, in normal C57BL/6 mice […]
vs 10wk) on the plasma PK of oral dasatinib us ing a nonlinear mixed effects (NLME) PK modeling […]
2. 1 In Vivo Pharmacokinetic (PK) Study
The total plasma PK of dasatinib in C57BL/6 mice (The Jackson Laboratory) was assessed after single oral gavages of 10 mg/kg of dasatinib free base equivalents. Dasatinib (St. Jude Compound […]
sodium citrate buffer pH 3.1 for a final dasatinib concentration of 1 mg/mL for a 10 mL/kg gavage volume.
Mice were grouped by Vitamin D dietary sufficiency status and sex, and studied at 8 and 10 weeks of age. Survival saphenous and facial vein bleeding of mice was conducted using IACUC-approved […]
was sampled 3 times on the 2 separate occasions of dasatinib dosing. […] The tubes were then immediately centrifuged to plasma, and stored on dry ice for […]

Structure (SMILES): Cc1nc(Nc2ncc(C(=O)Nc3c(C)cccc3Cl)s2)cc(N2CCN(CCO)CC2)n1 [dasatinib]
- calculated Cgut (10 mg/kg into a gastric volume of 300–400 μL): 1.5 mM
- influence of VD3 status, sex, or age on oral dasatinib PK (10 mg/kg oral gavage, 8 wk vs 10 wk): no influence
- Q pop (Base Model): 19.5 mL/min/kg
- V1 pop (apparent volume of central compartment) (Base Model): 12.7 L/kg
- V2 pop (Base Model): 11.1 L/kg
- omega_Cl (inter-individual variability) (Base Model): 0.294 %CV
- omega_V1 (inter-individual variability) (Base Model): 0.465 %CV
- Tk0 pop (Base Model, 10 mg/kg oral gavage, zero order absorption duration): 1.29 h
- Q pop (Final Model): 21 mL/min/kg
- V1 pop (Final Model): 12.2 L/kg
- V2 pop (Final Model): 11.2 L/kg
- omega_Cl (Final Model): 0.287 %CV
- omega_V1 (Final Model): 0.477 %CV
- Tk0 pop (Final Model (VD3 status and sex covariates on Cl)): 1.33 h
- DV (dasatinib plasma concentration) (GROUP:VD3 Def, SEX:F, OCC 1, time 0.5): 206.1 and 158.35
- DV (dasatinib plasma concentration) (GROUP:VD3 Def, SEX:F, OCC 1, time 1): 457.04 and 404.1
- DV (dasatinib plasma concentration) (GROUP:VD3 Def, SEX:F, OCC 1, time 2): > 500 and 323.65
- DV (dasatinib plasma concentration) (GROUP:VD3 Def, SEX:F, OCC 1, time 8): 33.172 and 43.592
- DV (dasatinib plasma concentration) (GROUP:VD3 Def, SEX:F, OCC 1, time 16): 2.7889 and 2.9067
- DV (dasatinib plasma concentration) (GROUP:VD3 Def, SEX:F, OCC 2, time 0.125): 29.279 and 44.718
- DV (dasatinib plasma concentration) (GROUP:VD3 Def, SEX:F, OCC 2, time 0.25): 240.93 and 155.4
- DV (dasatinib plasma concentration) (GROUP:VD3 Def, SEX:F, OCC 2, time 0.5): 128.51 and 161.37
- DV (dasatinib plasma concentration) (GROUP:VD3 Def, SEX:F, OCC 2, time 16): 6.2042 and 7.8308
- DV (dasatinib plasma concentration) (GROUP:VD3 Def, SEX:M, OCC 1, time 0.25): 143.39 and 275.48
- DV (dasatinib plasma concentration) (GROUP:VD3 Def, SEX:M, OCC 1, time 0.5): 240.61 and 267.78
- DV (dasatinib plasma concentration) (GROUP:VD3 Def, SEX:M, OCC 1, time 2): 760.24
- DV (dasatinib plasma concentration) (GROUP:VD3 Def, SEX:M, OCC 1, time 4): 99.618 and 81.306
- DV (dasatinib plasma concentration) (GROUP:VD3 Def, SEX:M, OCC 1, time 8): 11.773 and 10.821
- DV (dasatinib plasma concentration) (GROUP:VD3 Def, SEX:M, OCC 1, time 24): 7.0494 and 5.7321
- DV (dasatinib plasma concentration) (GROUP:VD3 Def, SEX:M, OCC 2, time 0.5): 117.58 and 209.13
- DV (dasatinib plasma concentration) (GROUP:VD3 Def, SEX:M, OCC 2, time 2): 376.78 and > 500
- DV (dasatinib plasma concentration) (GROUP:VD3 Def, SEX:M, OCC 2, time 4): 62.561 and 70.903
- DV (dasatinib plasma concentration) (GROUP:VD3 Def, SEX:M, OCC 2, time 8): 13.735 and 13.061
- DV (dasatinib plasma concentration) (GROUP:VD3 Def, SEX:M, OCC 2, time 16): 8.5466 and 7.4123
- DV (dasatinib plasma concentration) (GROUP:VD3 Suf, SEX:F, OCC 1, time 0.25): 244.67 and 197.71
- DV (dasatinib plasma concentration) (GROUP:VD3 Suf, SEX:F, OCC 1, time 0.5): 144.41 and 217.29
- DV (dasatinib plasma concentration) (GROUP:VD3 Suf, SEX:F, OCC 1, time 2): 466.97 and > 500
- DV (dasatinib plasma concentration) (GROUP:VD3 Suf, SEX:F, OCC 1, time 4): 105.56 and 62.725
- DV (dasatinib plasma concentration) (GROUP:VD3 Suf, SEX:F, OCC 1, time 8): 11.198 and 14.683
- DV (dasatinib plasma concentration) (GROUP:VD3 Suf, SEX:F, OCC 1, time 16): 1.9898 and 3.161
- DV (dasatinib plasma concentration) (GROUP:VD3 Suf, SEX:F, OCC 2, time 0.5): 124.69 and 151.83
- DV (dasatinib plasma concentration) (GROUP:VD3 Suf, SEX:F, OCC 2, time 2): 295.49 and 395.48
- DV (dasatinib plasma concentration) (GROUP:VD3 Suf, SEX:F, OCC 2, time 4): 72.682 and 42.565
- DV (dasatinib plasma concentration) (GROUP:VD3 Suf, SEX:F, OCC 2, time 16): 9.1881 and 6.2417
- DV (dasatinib plasma concentration) (GROUP:VD3 Suf, SEX:M, OCC 1, time 0.125): 35.897 and 45.322
- DV (dasatinib plasma concentration) (GROUP:VD3 Suf, SEX:M, OCC 1, time 0.25): 87.715 and 117.65
- DV (dasatinib plasma concentration) (GROUP:VD3 Suf, SEX:M, OCC 1, time 2): > 500 and 483.94
- DV (dasatinib plasma concentration) (GROUP:VD3 Suf, SEX:M, OCC 1, time 4): 103.68 and 89.88
